Measured values taken from ChEMBL document CHEMBL1150520, “Analogs of UK 14,304: Structural features responsible for 2 adrenoceptor activity” (Bioorg Med Chem Lett, 1995).

Experiments:
[1] = target: T1, Adrenergic receptor alpha-2 (Homo sapiens, UniProt P08913+P18825+P18089); experiment: Binding affinity for Alpha-2 adrenergic receptor of CHO-C10 membrane preparation; set-up: species or system Cricetulus griseus
T1 sequence (P08913 whole entry): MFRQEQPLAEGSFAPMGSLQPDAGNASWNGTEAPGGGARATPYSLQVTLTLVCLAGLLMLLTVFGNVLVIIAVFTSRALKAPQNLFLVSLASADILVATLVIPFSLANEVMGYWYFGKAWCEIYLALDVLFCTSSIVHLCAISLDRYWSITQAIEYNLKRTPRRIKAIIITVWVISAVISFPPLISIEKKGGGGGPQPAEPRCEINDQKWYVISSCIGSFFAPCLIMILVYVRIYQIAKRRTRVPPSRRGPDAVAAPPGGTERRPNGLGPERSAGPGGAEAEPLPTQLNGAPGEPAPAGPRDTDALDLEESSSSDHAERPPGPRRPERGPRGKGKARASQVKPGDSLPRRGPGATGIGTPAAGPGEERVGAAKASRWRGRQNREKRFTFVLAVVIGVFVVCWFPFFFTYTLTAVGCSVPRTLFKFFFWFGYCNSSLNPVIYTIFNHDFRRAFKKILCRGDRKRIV
T1 sequence (P18825 whole entry): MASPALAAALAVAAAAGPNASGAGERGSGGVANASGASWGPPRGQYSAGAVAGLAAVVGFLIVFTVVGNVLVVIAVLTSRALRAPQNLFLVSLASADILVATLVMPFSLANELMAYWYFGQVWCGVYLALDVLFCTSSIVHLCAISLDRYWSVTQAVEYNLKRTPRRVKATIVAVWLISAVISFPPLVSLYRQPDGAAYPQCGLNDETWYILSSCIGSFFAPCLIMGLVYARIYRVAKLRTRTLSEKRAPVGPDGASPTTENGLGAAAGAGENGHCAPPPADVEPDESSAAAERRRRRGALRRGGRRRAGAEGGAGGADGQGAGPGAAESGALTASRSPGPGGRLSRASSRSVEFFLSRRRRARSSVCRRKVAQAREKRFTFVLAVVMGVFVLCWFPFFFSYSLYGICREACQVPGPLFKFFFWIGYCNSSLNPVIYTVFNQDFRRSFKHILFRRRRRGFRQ
T1 sequence (P18089 whole entry): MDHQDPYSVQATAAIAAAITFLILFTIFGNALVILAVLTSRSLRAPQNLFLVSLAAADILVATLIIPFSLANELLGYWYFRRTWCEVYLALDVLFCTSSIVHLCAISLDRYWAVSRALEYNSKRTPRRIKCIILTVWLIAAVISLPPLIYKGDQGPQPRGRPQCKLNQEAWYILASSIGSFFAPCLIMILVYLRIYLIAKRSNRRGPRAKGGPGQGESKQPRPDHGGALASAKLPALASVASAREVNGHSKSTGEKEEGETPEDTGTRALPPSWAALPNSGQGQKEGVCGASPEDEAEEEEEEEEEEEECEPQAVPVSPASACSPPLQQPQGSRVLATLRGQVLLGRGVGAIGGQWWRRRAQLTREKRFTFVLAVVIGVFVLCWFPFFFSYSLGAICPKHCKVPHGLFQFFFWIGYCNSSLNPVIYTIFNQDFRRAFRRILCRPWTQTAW

[2] = target: T2, Adrenergic receptor alpha-1 (Homo sapiens, UniProt P35348+P25100+P35368); experiment: Binding affinity for Alpha-1 adrenergic receptor of human cerebral cortex membrane; assay type: tissue-based
T2 sequence (P35348 whole entry): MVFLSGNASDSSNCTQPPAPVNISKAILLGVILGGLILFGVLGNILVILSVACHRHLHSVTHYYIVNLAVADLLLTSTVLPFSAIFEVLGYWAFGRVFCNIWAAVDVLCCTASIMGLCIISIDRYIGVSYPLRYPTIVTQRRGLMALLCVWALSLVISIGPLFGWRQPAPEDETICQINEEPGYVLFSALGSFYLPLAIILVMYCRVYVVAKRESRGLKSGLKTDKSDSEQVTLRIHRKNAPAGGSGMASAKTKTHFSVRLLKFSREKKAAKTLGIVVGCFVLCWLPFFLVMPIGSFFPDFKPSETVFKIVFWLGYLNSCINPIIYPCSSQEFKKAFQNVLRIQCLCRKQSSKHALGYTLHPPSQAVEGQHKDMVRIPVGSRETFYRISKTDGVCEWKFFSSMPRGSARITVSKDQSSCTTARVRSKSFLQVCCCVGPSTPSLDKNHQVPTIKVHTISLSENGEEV
T2 sequence (P25100 whole entry): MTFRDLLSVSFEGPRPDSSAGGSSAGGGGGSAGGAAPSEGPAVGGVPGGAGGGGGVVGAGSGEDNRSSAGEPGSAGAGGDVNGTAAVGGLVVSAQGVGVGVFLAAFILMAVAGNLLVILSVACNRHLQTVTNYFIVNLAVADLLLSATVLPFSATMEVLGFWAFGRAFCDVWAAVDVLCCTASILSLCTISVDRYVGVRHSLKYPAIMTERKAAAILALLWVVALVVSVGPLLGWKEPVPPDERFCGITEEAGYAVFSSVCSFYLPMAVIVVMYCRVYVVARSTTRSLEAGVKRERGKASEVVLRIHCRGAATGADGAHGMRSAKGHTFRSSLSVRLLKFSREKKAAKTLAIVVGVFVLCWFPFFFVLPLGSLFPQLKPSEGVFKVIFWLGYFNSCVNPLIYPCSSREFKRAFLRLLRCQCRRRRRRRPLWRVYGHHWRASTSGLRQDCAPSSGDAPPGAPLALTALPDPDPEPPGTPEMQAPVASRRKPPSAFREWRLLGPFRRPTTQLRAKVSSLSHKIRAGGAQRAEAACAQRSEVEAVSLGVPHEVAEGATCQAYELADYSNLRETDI
T2 sequence (P35368 whole entry): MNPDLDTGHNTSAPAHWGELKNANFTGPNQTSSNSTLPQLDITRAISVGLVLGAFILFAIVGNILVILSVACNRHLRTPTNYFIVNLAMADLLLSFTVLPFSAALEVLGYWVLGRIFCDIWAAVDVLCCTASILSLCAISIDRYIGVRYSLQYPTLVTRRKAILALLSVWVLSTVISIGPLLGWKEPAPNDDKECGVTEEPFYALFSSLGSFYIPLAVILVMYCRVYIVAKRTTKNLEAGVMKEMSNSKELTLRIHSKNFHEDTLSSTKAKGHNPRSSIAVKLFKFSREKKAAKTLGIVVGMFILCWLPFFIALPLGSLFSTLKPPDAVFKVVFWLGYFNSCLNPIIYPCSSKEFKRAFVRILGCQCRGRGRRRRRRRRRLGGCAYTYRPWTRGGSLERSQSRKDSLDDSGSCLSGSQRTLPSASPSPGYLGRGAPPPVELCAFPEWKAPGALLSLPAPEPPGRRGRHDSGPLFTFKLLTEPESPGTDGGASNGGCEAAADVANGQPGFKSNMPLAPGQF

## CN(C1=NCCN1)c1ccc2c(c1)OCCO2
[1]
  Ki: 0.18 µM
[2]
  Ki: 30 µM

## Cc1c(NC2=NCCN2)ccc2c1NCCO2
[1]
  Ki: 0.0012 µM

## C/N=C(\NC)Nc1ccc2nccnc2c1Br
[1]
  Ki: 5.3 µM
[2]
  Ki: 10 µM

## c1cc2c(cc1NC1=NCCN1)OCCO2
[2]
  Ki: 2.4 µM

## Cc1c(NC2=NCCN2)ccc2c1NCCN2
[1]
  Ki: 0.0096 µM
[2]
  Ki: 8.9 µM

## c1cnc2cc(NC3=NCCN3)ccc2n1
[1]
  Ki: 0.041 µM

## Cc1c(NC2=NCCN2)ccc2c1OCCO2
[1]
  Ki: 0.00025 µM
[2]
  Ki: 0.13 µM

## Cc1ccccc1N=C1NCCN1
[1]
  Ki: 0.0078 µM
[2]
  Ki: 2.5 µM

## COc1ccc(NC2=NCCN2)c(C)c1OC
[1]
  Ki: 0.0052 µM
[2]
  Ki: 1.5 µM

## N=C(N)Nc1ccc2nccnc2c1Br
[1]
  Ki: 0.041 µM
[2]
  Ki: 17 µM
